Species: Rattus norvegicus
Assay: Open TG-GATES - Regimen: Single
Format: toxicity, organism-based, Sprague-Dawley
Parameters: regimen Single, gender Male, age 6 weeks
Conditions: in vivo, iv, 2000 mg/kg, route intravenous injection, dose level High; for APTT / Bas / Eos / Fbg / Hb / Ht / Lym / MCH / MCHC / MCV / Mono / PT / Plat / RBC / Ret / WBC: tissue Blood; for KIDNEY_L / KIDNEY_R / KIDNEY_TOTAL: tissue Kidney; for LIVER: tissue Liver; for ALP / ALT / AST / BUN / CRE / Ca / Cl / DBIL / GLC / IP / K / LDH / Na / PL / RALB / TBIL / TC / TG / TP / gamma-GTP: tissue Plasma

For `CC(=O)OCC1=C(C(=O)O)N2C(=O)[C@@H](NC(=O)Cc3cccs3)[C@H]2SC1` [CEPHALOTHIN], which TERMINAL_BW (3 h) is on record?
Its TERMINAL_BW is 214.8 g.

And the APTT (3 h)?
Its APTT is 23.6 s.

And the Bas (3 h)?
The Bas was 0%.

And the Eos (3 h)?
Its Eos is 0.4%.

And the Fbg (3 h)?
Its Fbg is 277.6 mg/dL.

What about the Hb (3 h) of the same compound?
The Hb was 13.6 g/dL.

What about the Ht (3 h) of the same compound?
The Ht was 39.4%.

What about the Lym (3 h) of the same compound?
Its Lym is 66.4%.

And the MCH (3 h)?
Its MCH is 21.1 pg.

What about the MCHC (3 h) of the same compound?
Its MCHC is 34.5%.

What about the MCV (3 h) of the same compound?
The MCV was 61.3 fL.

What about the Mono (3 h) of the same compound?
The Mono was 3.6%.

And the PT (3 h)?
Its PT is 16.6 s.

And the Plat (3 h)?
The Plat was 131.7 x10_4/uL.

And the RBC (3 h)?
The RBC was 644 x10_4/ul.

And the Ret (3 h)?
Its Ret is 6.1%.

And the WBC (3 h)?
Its WBC is 63.2 x10_2/uL.

And the KIDNEY_L (3 h)?
The KIDNEY_L was 0.9 g.

What about the KIDNEY_R (3 h) of the same compound?
The KIDNEY_R was 1 g.

And the KIDNEY_TOTAL (3 h)?
Its KIDNEY_TOTAL is 1.9 g.

And the LIVER (3 h)?
Its LIVER is 9.6 g.

What about the ALP (3 h) of the same compound?
Its ALP is 1568.4 IU/L.

What about the ALT (3 h) of the same compound?
The ALT was 46.4 IU/L.

What about the AST (3 h) of the same compound?
The AST was 94.6 IU/L.

What about the BUN (3 h) of the same compound?
The BUN was 12.2 mg/dL.

And the CRE (3 h)?
The CRE was 0.2 mg/dL.

What about the Ca (3 h) of the same compound?
Its Ca is 10.7 mg/dL.

And the Cl (3 h)?
The Cl was 104.4 meq/L.

What about the DBIL (3 h) of the same compound?
The DBIL was 0.002 mg/dL.

And the GLC (3 h)?
Its GLC is 173.2 mg/dL.

What about the IP (3 h) of the same compound?
Its IP is 9.3 mg/dL.

And the K (3 h)?
Its K is 4.2 meq/L.

What about the LDH (3 h) of the same compound?
The LDH was 214.4 IU/L.

And the Na (3 h)?
Its Na is 141.8 meq/L.

What about the PL (3 h) of the same compound?
Its PL is 136 mg/dL.

What about the RALB (3 h) of the same compound?
Its RALB is 2.9 g/dL.

And the TBIL (3 h)?
Its TBIL is 0.016 mg/dL.

And the TC (3 h)?
The TC was 68.2 mg/dL.

And the TG (3 h)?
Its TG is 79.8 mg/dL.

And the TP (3 h)?
The TP was 5.4 g/dL.

And the gamma-GTP (3 h)?
Its gamma-GTP is 1.2 IU/L.

What about the TERMINAL_BW (6 h) of the same compound?
Its TERMINAL_BW is 214.6 g.

And the APTT (6 h)?
Its APTT is 23 s.

What about the Bas (6 h) of the same compound?
The Bas was 0%.

And the Eos (6 h)?
The Eos was 0.4%.

And the Fbg (6 h)?
The Fbg was 279.2 mg/dL.

What about the Hb (6 h) of the same compound?
The Hb was 13.4 g/dL.

What about the Ht (6 h) of the same compound?
Its Ht is 39.1%.

And the Lym (6 h)?
The Lym was 67.4%.

And the MCH (6 h)?
The MCH was 21 pg.

And the MCHC (6 h)?
The MCHC was 34.3%.

And the MCV (6 h)?
Its MCV is 61.1 fL.

What about the Mono (6 h) of the same compound?
Its Mono is 3%.

What about the PT (6 h) of the same compound?
Its PT is 16.3 s.

And the Plat (6 h)?
The Plat was 121.3 x10_4/uL.

And the RBC (6 h)?
Its RBC is 639.8 x10_4/ul.

And the Ret (6 h)?
Its Ret is 5.9%.

What about the WBC (6 h) of the same compound?
The WBC was 81.2 x10_2/uL.

And the KIDNEY_L (6 h)?
Its KIDNEY_L is 1 g.

What about the KIDNEY_R (6 h) of the same compound?
The KIDNEY_R was 1.1 g.

And the KIDNEY_TOTAL (6 h)?
The KIDNEY_TOTAL was 2.1 g.

And the LIVER (6 h)?
Its LIVER is 9.2 g.

And the ALP (6 h)?
The ALP was 1347.4 IU/L.

And the ALT (6 h)?
Its ALT is 42.6 IU/L.

What about the AST (6 h) of the same compound?
Its AST is 95.8 IU/L.

And the BUN (6 h)?
The BUN was 12 mg/dL.

What about the CRE (6 h) of the same compound?
The CRE was 0.1 mg/dL.

What about the Ca (6 h) of the same compound?
Its Ca is 10.6 mg/dL.

What about the Cl (6 h) of the same compound?
The Cl was 105 meq/L.

And the DBIL (6 h)?
The DBIL was 0.002 mg/dL.

What about the GLC (6 h) of the same compound?
The GLC was 171.6 mg/dL.

And the IP (6 h)?
The IP was 9.4 mg/dL.

And the K (6 h)?
The K was 4.4 meq/L.

What about the LDH (6 h) of the same compound?
The LDH was 182.6 IU/L.

And the Na (6 h)?
The Na was 141.2 meq/L.

What about the PL (6 h) of the same compound?
Its PL is 145 mg/dL.

And the RALB (6 h)?
Its RALB is 2.9 g/dL.

What about the TBIL (6 h) of the same compound?
Its TBIL is 0.022 mg/dL.

What about the TC (6 h) of the same compound?
Its TC is 73.6 mg/dL.

What about the TG (6 h) of the same compound?
The TG was 136.6 mg/dL.

And the TP (6 h)?
Its TP is 5.3 g/dL.

And the gamma-GTP (6 h)?
The gamma-GTP was 1.2 IU/L.

What about the TERMINAL_BW (9 h) of the same compound?
Its TERMINAL_BW is 210.5 g.

What about the APTT (9 h) of the same compound?
Its APTT is 21.8 s.

What about the Bas (9 h) of the same compound?
The Bas was 0%.

And the Eos (9 h)?
Its Eos is 1%.

And the Fbg (9 h)?
Its Fbg is 290.8 mg/dL.

And the Hb (9 h)?
The Hb was 13.4 g/dL.

What about the Ht (9 h) of the same compound?
The Ht was 39.2%.

What about the Lym (9 h) of the same compound?
Its Lym is 70.8%.

What about the MCH (9 h) of the same compound?
Its MCH is 21 pg.

What about the MCHC (9 h) of the same compound?
Its MCHC is 34.2%.

What about the MCV (9 h) of the same compound?
Its MCV is 61.4 fL.

And the Mono (9 h)?
The Mono was 2.8%.

And the PT (9 h)?
Its PT is 16.3 s.

What about the Plat (9 h) of the same compound?
The Plat was 122.1 x10_4/uL.

What about the RBC (9 h) of the same compound?
The RBC was 638.8 x10_4/ul.

And the Ret (9 h)?
The Ret was 5.8%.

And the WBC (9 h)?
Its WBC is 69.5 x10_2/uL.

What about the KIDNEY_L (9 h) of the same compound?
The KIDNEY_L was 1 g.

What about the KIDNEY_R (9 h) of the same compound?
Its KIDNEY_R is 1 g.

And the KIDNEY_TOTAL (9 h)?
The KIDNEY_TOTAL was 2 g.

And the LIVER (9 h)?
The LIVER was 8.6 g.

What about the ALP (9 h) of the same compound?
Its ALP is 1382 IU/L.

And the ALT (9 h)?
Its ALT is 39.4 IU/L.

What about the AST (9 h) of the same compound?
The AST was 90 IU/L.

What about the BUN (9 h) of the same compound?
The BUN was 10.4 mg/dL.

And the CRE (9 h)?
Its CRE is 0.1 mg/dL.

And the Ca (9 h)?
Its Ca is 10.5 mg/dL.

What about the Cl (9 h) of the same compound?
Its Cl is 106 meq/L.

What about the DBIL (9 h) of the same compound?
The DBIL was 0 mg/dL.

And the GLC (9 h)?
Its GLC is 176 mg/dL.

What about the IP (9 h) of the same compound?
Its IP is 9.3 mg/dL.

What about the K (9 h) of the same compound?
The K was 4.5 meq/L.

And the LDH (9 h)?
The LDH was 162.6 IU/L.

What about the Na (9 h) of the same compound?
Its Na is 141 meq/L.

And the PL (9 h)?
The PL was 134.4 mg/dL.

And the RALB (9 h)?
The RALB was 2.9 g/dL.

And the TBIL (9 h)?
The TBIL was 0.028 mg/dL.

What about the TC (9 h) of the same compound?
Its TC is 66.4 mg/dL.

And the TG (9 h)?
The TG was 101.2 mg/dL.

And the TP (9 h)?
Its TP is 5.3 g/dL.

And the gamma-GTP (9 h)?
Its gamma-GTP is 1.2 IU/L.

And the TERMINAL_BW (24 h)?
Its TERMINAL_BW is 223.7 g.

What about the APTT (24 h) of the same compound?
Its APTT is 21.3 s.

What about the Bas (24 h) of the same compound?
Its Bas is 0%.

And the Eos (24 h)?
Its Eos is 0.8%.

What about the Fbg (24 h) of the same compound?
Its Fbg is 339.2 mg/dL.

What about the Hb (24 h) of the same compound?
Its Hb is 13.5 g/dL.

And the Ht (24 h)?
The Ht was 38.6%.

And the Lym (24 h)?
Its Lym is 83.6%.

What about the MCH (24 h) of the same compound?
The MCH was 20.4 pg.

What about the MCHC (24 h) of the same compound?
The MCHC was 34.8%.

What about the MCV (24 h) of the same compound?
The MCV was 58.4 fL.

What about the Mono (24 h) of the same compound?
Its Mono is 2.4%.

And the PT (24 h)?
The PT was 16.2 s.

And the Plat (24 h)?
The Plat was 117.9 x10_4/uL.

What about the RBC (24 h) of the same compound?
The RBC was 661.4 x10_4/ul.

And the Ret (24 h)?
Its Ret is 5.4%.

What about the WBC (24 h) of the same compound?
The WBC was 77.7 x10_2/uL.

What about the KIDNEY_L (24 h) of the same compound?
The KIDNEY_L was 1 g.

What about the KIDNEY_R (24 h) of the same compound?
Its KIDNEY_R is 1 g.

And the KIDNEY_TOTAL (24 h)?
The KIDNEY_TOTAL was 2 g.

What about the LIVER (24 h) of the same compound?
Its LIVER is 9 g.

And the ALP (24 h)?
Its ALP is 1511.8 IU/L.

What about the ALT (24 h) of the same compound?
Its ALT is 44.8 IU/L.

What about the AST (24 h) of the same compound?
Its AST is 78.6 IU/L.

What about the BUN (24 h) of the same compound?
The BUN was 15.6 mg/dL.

What about the CRE (24 h) of the same compound?
Its CRE is 0.2 mg/dL.

What about the Ca (24 h) of the same compound?
The Ca was 10.6 mg/dL.

And the Cl (24 h)?
The Cl was 106 meq/L.

What about the DBIL (24 h) of the same compound?
The DBIL was 0.004 mg/dL.

And the GLC (24 h)?
Its GLC is 183 mg/dL.

What about the IP (24 h) of the same compound?
Its IP is 7.3 mg/dL.

And the K (24 h)?
Its K is 4.4 meq/L.

And the LDH (24 h)?
Its LDH is 162 IU/L.

And the Na (24 h)?
The Na was 142.2 meq/L.

What about the PL (24 h) of the same compound?
The PL was 143.8 mg/dL.

And the RALB (24 h)?
Its RALB is 3.1 g/dL.

And the TBIL (24 h)?
Its TBIL is 0.02 mg/dL.

What about the TC (24 h) of the same compound?
The TC was 74.6 mg/dL.

What about the TG (24 h) of the same compound?
Its TG is 76 mg/dL.

And the TP (24 h)?
Its TP is 5.7 g/dL.

What about the gamma-GTP (24 h) of the same compound?
The gamma-GTP was 1.6 IU/L.

Source: ChEMBL document CHEMBL3885861, “Open TG-GATES”
